# In PMC12508156, “Non-canonical dihydrolipoyl transacetylase promotes chemotherapy resistance via mitochondrial tetrahydrofolate signaling” (Nature Communications, 2025):
# “And” between values parts separate entries of the source, which are not always exact repeats. Identical values can stand only once.
# Columns and labels:
# A549cisR cells [1] = assay: Apoptotic cell death (annexin V/PI staining); assay type: cell-based, human; conditions: cisplatin 2 μg/ml, 48 h, n=1-4: biological replicates, listed as cis
# KB-3-1cisR cells [2] = assay: Apoptotic cell death (annexin V/PI staining); assay type: cell-based, human
# PCI-37B cells = assay: Apoptotic cell death (annexin V/PI staining); assay type: cell-based, human; conditions: cisplatin 1 μg/ml, 48 h, n=1-3: biological replicates
# ATP = assay: Intracellular ATP level; assay type: cell-based, human; parameters: unit not given here
# Method: (§1) Cellular metabolic states were examined through various assays. To gauge the levels of total intracellular or mitochondrial reactive oxygen species (ROS), cells were stained with CM-H2DCFDA or mitoSOX, respectively. Intracellular H2O2, NADPH, acetyl-CoA, and GSH/GSSG ratios were quantified using commercial assay kits as listed in the Reagents. Intracellular ATP levels were determined utilizing the ATP bioluminescent somatic cell assay and normalized to the total protein concentrations. The de novo synthesized RNA and proteins were assessed in cancer cells using commercial assays following the manufacturer’s protocols. In brief, O-propargyl-puromycin or uridine analog, 5-EU, was applied to stop translation or modify RNA. Polypeptides or modified RNA were measured using fluorescent azide with Ex/Em at 494/521 nm. PDC activity was determined by measuring the reduction of NAD+ to NADH during the conversion of pyruvate into acetyl-CoA.
# protein synthesis = assay: Global protein synthesis (O-propargyl-puromycin); assay type: cell-based, human
# Method: as §1
# A549cisR cells [3] = conditions: read-out: cisplatin IC50; A549cisR cells generated by continuous exposure to cisplatin; cited from earlier work
# Method: (§2) The RNAi library contains 328 shRNA clones, and each gene was targeted by 2 ~ 8 clones (Fig. 1a). Eleven genes, including DLAT, were selected as unexplored lead hits with cisplatin-sensitizing potential and were further evaluated in A549^cisR, H1299, and KB-3-1^cisR, and two acetyltrans ... || HCT116 and HT-29 colon cancer cell lines, MDA-MB231, HeLa, 293T, and KB-3-1^cisR cells were cultured in Dulbecco Modified Eagle Medium (DMEM). The PCI-37B and FaDu cell lines was maintained in DMEM/Ham’s F-12 50/50 mix medium. […] All media contained 100 U/ml penicillin and 100 μg/ml of streptomycin, supplemented with 10% fetal bovine serum. The identity of KB-3-1 and PCI-37B cells were described previously[45],[58],[59]. All other cell lines were from the American Type Culture Collection (ATCC). KB-3-1^cisR and A549^cisR cells w ...
# KB-3-1cisR cells [4] = conditions: read-out: cisplatin IC50; KB-3-1cisR cells generated by continuous exposure to cisplatin; cited from earlier work
# Method: as §2
# GSH/GSSG = GSH/GSSG ratio (GSH/GSSG-Glo); assay type: cell-based, human
# [5] = A549cisR, pLKO.1, n=1 (Figure 3B)
# [6] = A549cisR, pLKO.1, n=2 (Figure 3B)
# [7] = A549cisR, pLKO.1, n=3 (Figure 3B)
# [8] = A549cisR, shDLAT, n=1 (Figure 3B)
# [9] = A549cisR, shDLAT, n=2 (Figure 3B)
# [10] = A549cisR, shDLAT, n=3 (Figure 3B)
# [11] = KB-3-1cisR, pLKO.1, n=1 (Figure 3B)
# [12] = KB-3-1cisR, pLKO.1, n=2 (Figure 3B)
# [13] = KB-3-1cisR, pLKO.1, n=3 (Figure 3B)
# [14] = KB-3-1cisR, shDLAT, n=1 (Figure 3B)
# [15] = KB-3-1cisR, shDLAT, n=2 (Figure 3B)
# [16] = KB-3-1cisR, shDLAT, n=3 (Figure 3B)
smiles,measurement,setting,value
N.N.[Cl][Pt][Cl] [cisplatin],Apoptotic death,A549cisR cells [1]; A549cisR pLKO.1+pLHCX,7.05 and 8.53 and 8.99 and 9.51
same,Apoptotic death,A549cisR cells [1]; A549cisR shDLAT+DLAT(WT) rescue,7.31 and 8.35 and 8.93 and 10.11
same,Apoptotic death,"KB-3-1cisR cells [2]; KB-3-1cisR pLKO.1+pLHCX, cisplatin 5 μg/ml, 48 h, n=1-4: biological replicates, listed as cis",8.39 and 8.75 and 8.86 and 8.83
same,Apoptotic death,"KB-3-1cisR cells [2]; KB-3-1cisR shDLAT+DLAT(WT) rescue, cisplatin 5 μg/ml, 48 h, n=1-4: biological replicates, listed as cis",6.91 and 7.48 and 7.23
same,Apoptotic death,"KB-3-1cisR cells [2]; KB-3-1cisR, KQ, sheet Figure 6E, replicate n=3",10
same,Apoptotic death,"KB-3-1cisR cells [2]; KB-3-1cisR, shDLAT, sheet Figure 5F, replicate n=1",63.6
same,Apoptotic death,"KB-3-1cisR cells [2]; KB-3-1cisR, shDLAT, sheet Figure 5F, replicate n=2",64.3
same,Apoptotic death,PCI-37B cells; PCI-37B pLKO.1,19.17
same,Apoptotic death,PCI-37B cells; PCI-37B shDLAT #1,38.02
same,Apoptotic death,PCI-37B cells; PCI-37B shDLAT #2,33.33 and 33.41 and 32.54
same,ATP level,ATP; [5],1.319
same,ATP level,ATP; [6],1.28
same,ATP level,ATP; [7],1.1923
same,ATP level,ATP; [8],1.405
same,ATP level,ATP; [9],1.318
same,ATP level,ATP; [10],1.292
same,ATP level,ATP; [11],1.593
same,ATP level,ATP; [12],1.725
same,ATP level,ATP; [13],1.722
same,ATP level,ATP; [14],1.707
same,ATP level,ATP; [15],1.7048
same,ATP level,ATP; [16],1.693
same,Global protein synthase,protein synthesis; [5],73.5
same,Global protein synthase,protein synthesis; [6],70.6
same,Global protein synthase,protein synthesis; [7],67.1
same,Global protein synthase,protein synthesis; [8],76.2
same,Global protein synthase,protein synthesis; [9],75.5
same,Global protein synthase,protein synthesis; [10],73.3
same,Global protein synthase,protein synthesis; [11],101
same,Global protein synthase,protein synthesis; [12],98.7
same,Global protein synthase,protein synthesis; [13],101
same,Global protein synthase,protein synthesis; [14],92.8
same,Global protein synthase,protein synthesis; [15],100
same,Global protein synthase,protein synthesis; [16],92.4
same,IC50,A549cisR cells [3],17.6 µM
same,IC50,KB-3-1cisR cells [4],60.5 µM
same,GSH/GSSG,"GSH/GSSG; A549cisR cells, pLKO.1, n=1",18.3651
same,GSH/GSSG,"GSH/GSSG; A549cisR cells, pLKO.1, n=3",19.3614
same,GSH/GSSG,"GSH/GSSG; A549cisR cells, pLKO.1, n=4",18.0395
same,GSH/GSSG,"GSH/GSSG; A549cisR cells, shDLAT, n=1",8.402
same,GSH/GSSG,"GSH/GSSG; A549cisR cells, shDLAT, n=2",8.901
same,GSH/GSSG,"GSH/GSSG; A549cisR cells, shDLAT, n=4",10.9995
same,GSH/GSSG,"GSH/GSSG; A549cisR, CTL, sheet Figure 5G, replicate n=1",25.1517
same,GSH/GSSG,"GSH/GSSG; A549cisR, CTL, sheet Figure 5G, replicate n=2",26.0996
same,GSH/GSSG,"GSH/GSSG; A549cisR, CTL, sheet Figure 5G, replicate n=3",23.5884
same,GSH/GSSG,"GSH/GSSG; A549cisR, shDLAT+Flag-MTHFD2 (K44Q), sheet Figure 5G, replicate n=1",31.9457
same,GSH/GSSG,"GSH/GSSG; A549cisR, shDLAT+Flag-MTHFD2 (K44Q), sheet Figure 5G, replicate n=2",29.1783
same,GSH/GSSG,"GSH/GSSG; A549cisR, shDLAT+Flag-MTHFD2 (K44Q), sheet Figure 5G, replicate n=3",30.4077
same,GSH/GSSG,"GSH/GSSG; A549cisR, shDLAT+Flag-MTHFD2 (K44R), sheet Figure 5G, replicate n=1",8.894
same,GSH/GSSG,"GSH/GSSG; A549cisR, shDLAT+Flag-MTHFD2 (K44R), sheet Figure 5G, replicate n=2",10.2513
same,GSH/GSSG,"GSH/GSSG; A549cisR, shDLAT+Flag-MTHFD2 (K44R), sheet Figure 5G, replicate n=3",9.633
same,GSH/GSSG,"GSH/GSSG; A549cisR, shDLAT, sheet Figure 5G, replicate n=1",8.501
same,GSH/GSSG,"GSH/GSSG; A549cisR, shDLAT, sheet Figure 5G, replicate n=2",9.861
same,GSH/GSSG,"GSH/GSSG; A549cisR, shDLAT, sheet Figure 5G, replicate n=3",10.404
same,GSH/GSSG,"GSH/GSSG; KB-3-1cisR cells, pLKO.1, n=1",14.1658
same,GSH/GSSG,"GSH/GSSG; KB-3-1cisR cells, pLKO.1, n=2",13.5059
same,GSH/GSSG,"GSH/GSSG; KB-3-1cisR cells, pLKO.1, n=3",14.1711
same,GSH/GSSG,"GSH/GSSG; KB-3-1cisR cells, pLKO.1, n=4",12.6758
same,GSH/GSSG,"GSH/GSSG; KB-3-1cisR cells, shDLAT, n=3",6.177
same,GSH/GSSG,"GSH/GSSG; KB-3-1cisR cells, shDLAT, n=4",6.252
same,GSH/GSSG,"GSH/GSSG; KB-3-1cisR, CTL, sheet Figure 5G, replicate n=1",15.3805
same,GSH/GSSG,"GSH/GSSG; KB-3-1cisR, CTL, sheet Figure 5G, replicate n=2",14.4145
same,GSH/GSSG,"GSH/GSSG; KB-3-1cisR, CTL, sheet Figure 5G, replicate n=3",16.7699
same,GSH/GSSG,"GSH/GSSG; KB-3-1cisR, shDLAT+Flag-MTHFD2 (K44Q), sheet Figure 5G, replicate n=1",25.3381
same,GSH/GSSG,"GSH/GSSG; KB-3-1cisR, shDLAT+Flag-MTHFD2 (K44Q), sheet Figure 5G, replicate n=2",26.6695
same,GSH/GSSG,"GSH/GSSG; KB-3-1cisR, shDLAT+Flag-MTHFD2 (K44Q), sheet Figure 5G, replicate n=3",26.7501
same,GSH/GSSG,"GSH/GSSG; KB-3-1cisR, shDLAT+Flag-MTHFD2 (K44R), sheet Figure 5G, replicate n=1",6.376
same,GSH/GSSG,"GSH/GSSG; KB-3-1cisR, shDLAT+Flag-MTHFD2 (K44R), sheet Figure 5G, replicate n=2",6.273
same,GSH/GSSG,"GSH/GSSG; KB-3-1cisR, shDLAT+Flag-MTHFD2 (K44R), sheet Figure 5G, replicate n=3",6.832
same,GSH/GSSG,"GSH/GSSG; KB-3-1cisR, shDLAT, sheet Figure 5G, replicate n=1",7.027
same,GSH/GSSG,"GSH/GSSG; KB-3-1cisR, shDLAT, sheet Figure 5G, replicate n=2",6.914
same,GSH/GSSG,"GSH/GSSG; KB-3-1cisR, shDLAT, sheet Figure 5G, replicate n=3",7.456
